One series deals with THP-1 or HT-1080 cells. Kind of series: CellTiter-Blue Cell Viability Assay, toxicity profile of peptides. The note with it: about 20 h exposure. The source says: Here, we examined the cytotoxicity effect of peptides SG#1 to SG#17 (ID1031 to ID1047) on two human cell lines THP-1 or HT-1080 cells.
The CellTiter-Blue® Cell Viability Assay provides a homogenous, fluorometric method for estimating the number of viable cells present in multiwall plates. It uses the indicator dye resazurin to measure the metabolic capacity of cells—an indicator of cell viability. Viable cells retain the ability to reduce resazurin into resorufin, which is highly fluorescent.
The CellTiter-Blue® Reagent is a buffered solution containing highly purified resazurin. Resazurin is dark blue in color and has little intrinsic fluorescence. However, when it is reduced to resorufin, it becomes pink and highly fluorescent (579EX/584EM).
• 1. Set up 96-well assay plates containing cells in culture medium. For HT-1080, plate 1.6×10^4 cells per well on the Day 1 of the experiment. Cells are plated in 100 μl complete culture medium (DMEM) per well. • 2. On day 2, gently remove medium and add 50 μl of complete DMEM medium, add peptides and vehicle controls to appropriate wells so the final volume is 100 μl in each well. Supplement with complete DMEM where necessary. • 3. Culture cells for the desired test exposure period, about 20 h. • 4. On day 3, remove assay plates from 37° C. incubator and add 20 μl/well of CellTiter-Blue® Reagent. • 5. Shake for 10 seconds. • 6. Incubate using standard cell culture conditions for 4 hours. • 7. Shake plate for 10 seconds and record fluorescence at 560/590 nm
Toxicity profile for peptides SG#1 to SG#17 (ID1031 to ID1047). All peptides were tested at the dosage increment (10 nm, 30 nM, 100 nM, 1 μM, 10 μM, 30 μM, 100 μM and 300 μM).

Series [1] concerns murine model of collagen-induced arthritis. The series is described as follows: Collagen-induced arthritis model (CIA model), study number 2, Example 12. In kind it is in vivo, female DBA/1J mice. The note with it: for Terminal Individual Paw Score, Front left, group mean / Terminal Individual Paw Score, Front right, group mean / Terminal Individual Paw Score, Rear left, group mean / Terminal Individual Paw Score, Rear right, group mean: day 42; for effect on diseased mouse weight / incidence of disease / reduction in disease severity: once daily subcutaneous 4 μg/mouse; for incidence of disease: starting one hour prior to disease induction; for reduction in disease severity: at the termination of the study; for Arthritic Index (AI), group mean: peptides 4 μg/mouse, methotrexate 1 mg/kg, subcutaneous. The procedure:
The CIA model as described in an Example 9 is the “standard” animal model for evaluation of anti-arthritic activity based on immunization with bovine collagen to develop antibodies against bone and cartilage.
Here we present data on investigating in vivo effect of the HERV-Env59, SG#2, and SG#5 and SG#15 peptides. The aim was to determine anti-arthritic dosing paradigm in a murine model of collagen-induced arthritis. This study was carried out in female DBA/1J mice. The effect of the Env59 ISU peptide, SG#2, SG#5 or SG#15 peptide on disease development is compared with a methotrexate MTX (positive control) or saline treated control group.
Day 0: The mice were weighted and injected subcutaneously at the nape of the neck as in the table below (table 6):
An hour later, the mice were injected subcutaneously at the base of the tail with 50 μl of the collagen/CFA emulsion.
Mice were scored for signs of arthritis every Monday, Wednesday, and Friday during the next 41 days as follows: • Each paw receives a score • 0=no visible effects of arthritis • 1=edema and/or erythema of 1 digit • 2=edema and/or erythema of 2 digits • 3=edema and/or erythema of more than 2 digits • 4=severe arthritis of entire paw and digits
The Arthritic Index (AI) was calculated by the addition of individual paw scores.
Day 42 The mice were weighted and scored for signs of arthritis.

Bridge positions count the residues as written; N and C are the ends. Ends that are not written are not given here. Peptide text beside a SMILES is read from it. I, II: the chains in the order shown.

Turning to `CC[C@H](C)[C@H](NC(=O)[C@H](CO)NC(=O)[C@H](CC(C)C)NC(=O)CNC(=O)[C@H](CCCCNC(=O)[C@H](CC(C)C)NC(=O)CNC(=O)[C@H](CCCNC(=N)N)NC(=O)[C@H](CCCNC(=N)N)NC(=O)[C@H](CC(N)=O)NC(=O)[C@H](CCC(N)=O)NC(=O)[C@@H](N)CC(C)C)NC(=O)[C@H](CC(C)C)NC(=O)CNC(=O)[C@H](CCCNC(=N)N)NC(=O)[C@H](CCCNC(=N)N)NC(=O)[C@H](CC(N)=O)NC(=O)[C@H](CCC(N)=O)NC(=O)[C@@H](N)CC(C)C)C(=O)N[C@@H](CC(C)C)C(=O)N[C@@H](CC(C)C)C(=O)N[C@@H](CC(N)=O)C(=O)N[C@@H](CCC(=O)O)C(=O)N[C@@H](CCC(=O)O)C(=O)O` [SG#16] (I: H-LQNRRGLKGLSILLNEE-OH / II: H-LQNRRGL; amide I:8-II:C), the “Toxicity yes/no at the 300 μM conc.” value in the series on THP-1 or HT-1080 cells is reported as “No”.

As for GLSILLNEECGPGPGP (Possibly HERV) [SG#5], the “Terminal Individual Paw Score, Front left, group mean” value in series [1] is on record as 1.3. In addition, the “Terminal Individual Paw Score, Front right, group mean” value in series [1] is 1.1. For the same molecule, the “Terminal Individual Paw Score, Rear left, group mean” value in series [1] is on record as 0.3. For the same molecule, the “Terminal Individual Paw Score, Rear right, group mean” value in series [1] turned out to be 1.0. Moreover, the “effect on diseased mouse weight” value in series [1] is on record as “no effect”. Moreover, in series [1], the incidence of disease is listed as 80%. Further, the “reduction in disease severity” value in series [1] is listed as 70%. Further, the “Arthritic Index (AI), group mean” value in series [1] (study day 14) amounted to 0; in series [1] (study day 21), 0; in series [1] (study day 25), 0; in series [1] (study day 27), 0.0; in series [1] (study day 29), 0.9; in series [1] (study day 32), 1.1. Further, the “Arthritic Index (AI), group mean” value is listed as 1.3 in series [1] (study day 34); 2.1 in series [1] (study day 36); 3.3 in series [1] (study day 39); 3.5 in series [1] (study day 41); 3.6 in series [1] (study day 42). Further, in the series with THP-1 or HT-1080 cells, the “Toxicity yes/no at the 300 μM conc.” value is “No”.

For the molecule “LNRKAIGLSILLNEECGPGPGP (Possibly HERV) [SG#6]”, the “Toxicity yes/no at the 300 μM conc.” value in the series with THP-1 or HT-1080 cells was “No”.

Regarding “LQNKKGLGLSILLNEECGPGPGP (Possibly HERV) [SG#9]”, the “Toxicity yes/no at the 300 μM conc.” value in the series with THP-1 or HT-1080 cells is “No”.

Regarding “LQNKRGLGLSILLNEECGPGPGP (Possibly HERV) [SG#8]”, the “Toxicity yes/no at the 300 μM conc.” value with THP-1 or HT-1080 cells was “No”.

For the molecule “LQNRRGLDLSILLNEECGPGPGP (Possibly HERV) [SG#3]”, the “Toxicity yes/no at the 300 μM conc.” value in the series on THP-1 or HT-1080 cells is listed as “No”.

For LQNRRGLGLSILLNC (Possibly HERV) [SG#4], the “Toxicity yes/no at the 300 μM conc.” value in the series with THP-1 or HT-1080 cells is listed as “No”.

Regarding LQNRRGLGLSILLNEE [SG#13], the “Toxicity yes/no at the 300 μM conc.” value with THP-1 or HT-1080 cells is listed as “No”.

Regarding “LQNRRGLGLSILLNEECEEGPGPGP (Possibly HERV) [SG#2]”, the “Terminal Individual Paw Score, Front left, group mean” value in series [1] was 0.4. Besides, the “Terminal Individual Paw Score, Front right, group mean” value in series [1] was 0.4. The “Terminal Individual Paw Score, Rear left, group mean” value in series [1] came to 0.1. Moreover, in series [1], the “Terminal Individual Paw Score, Rear right, group mean” value turned out to be 0.5. The “effect on diseased mouse weight” value in series [1] is on record as “no effect”. For the same molecule, in series [1], the incidence of disease is on record as 30%. In series [1], the “reduction in disease severity” value was 90%. Moreover, the “Arthritic Index (AI), group mean” value in series [1] (study day 14) turned out to be 0; in series [1] (study day 21) it was 0; in series [1] (study day 25), 0; in series [1] (study day 27), 0.4; in series [1] (study day 29), 0.4; in series [1] (study day 32), 0.9. Moreover, the “Arthritic Index (AI), group mean” value is 0.9 in series [1] (study day 34); 0.9 in series [1] (study day 36); 0.9 in series [1] (study day 39); 1.0 in series [1] (study day 41); 1.4 in series [1] (study day 42). For the same molecule, the “Toxicity yes/no at the 300 μM conc.” value in the series on THP-1 or HT-1080 cells is reported as “No”.

As to LQNRRGLGLSILLNEECGPGPGP [SG#10], in the series on THP-1 or HT-1080 cells, the “Toxicity yes/no at the 300 μM conc.” value was “No”.

For the molecule “LQNRRGLGLSILLNEECGPGPGP [SG#17] (Possibly HERV)”, the “Toxicity yes/no at the 300 μM conc.” value with THP-1 or HT-1080 cells was “No”.

As to “LQNRRGLGLSILLNEECGPKK (Possibly HERV) [SG#11]”, the “Toxicity yes/no at the 300 μM conc.” value in the series on THP-1 or HT-1080 cells is recorded as “No”.

In the case of “LQNRRGLGLSILLNEECKKGPGPGP (Possibly HERV) [SG#1]”, the “Toxicity yes/no at the 300 μM conc.” value in the series with THP-1 or HT-1080 cells is “No”.

For the molecule LQNRRGLGLSILLNEELQNRRGL [SG#14], the “Toxicity yes/no at the 300 μM conc.” value with THP-1 or HT-1080 cells is on record as “No”.

In the case of “LQNRRGLGLSILLNEELQNRRGLC (Possibly HERV) [SG#12]”, the “Toxicity yes/no at the 300 μM conc.” value with THP-1 or HT-1080 cells is given as “No”.

For “LQNRRGLLQNRRGLGLSILLNEE (Possibly HERV) [SG#15]”, the “Terminal Individual Paw Score, Front left, group mean” value in series [1] was determined as 0.1. Besides, the “Terminal Individual Paw Score, Front right, group mean” value in series [1] is recorded as 0. In addition, the “Terminal Individual Paw Score, Rear left, group mean” value in series [1] worked out at 0.3. In addition, the “Terminal Individual Paw Score, Rear right, group mean” value in series [1] came to 0. For the same molecule, the “effect on diseased mouse weight” value in series [1] is on record as “no effect”. This molecule also had an incidence of disease in series [1] of 30%. For the same molecule, the “reduction in disease severity” value in series [1] worked out at 97%. The “Arthritic Index (AI), group mean” value in series [1] (study day 14) was 0; in series [1] (study day 21), 0; in series [1] (study day 25), 0; in series [1] (study day 27) it was 0.1; in series [1] (study day 29), 0.1; in series [1] (study day 32) it was 0.1. Moreover, the “Arthritic Index (AI), group mean” value is 0.3 in series [1] (study day 34); 0.3 in series [1] (study day 36); 0.3 in series [1] (study day 39); 0.3 in series [1] (study day 41); 0.4 in series [1] (study day 42). Also, the “Toxicity yes/no at the 300 μM conc.” value in the series with THP-1 or HT-1080 cells was “No”.

The values are drawn from patent publication US20190040106A1, “USE OF HUMAN DERIVED IMMUNOSUPPRESSIVE PROTEINS AND PEPTIDES AS MEDICAMENTS” (AIMVION A/S, priority 2015, published 2019).
